Patent US11970502B2, “Macrocyclic antiviral agents” (Enanta Pharmaceuticals, Inc., priority 2021, dated 2024)
Like-named read-outs stand apart in the source and are kept apart here.

Assays:
SARS-CoV-2 3CL-protease = SARS-CoV-2 3CL-protease (Severe acute respiratory syndrome coronavirus 2, UniProt P0DTD1); assay: biochemical
[1] = test system: 229E human corona virus (hCoV); assay: 229E Cellular Assay (MRC5), 229E live virus assay, ATPlite readout; type: cell-based, hCoV-229E
[2] = recombinant 3CL-protease 10 nM, substrate 40 μM, 30 min preincubation at RT, read-out: FRET IC50
[3] = Human coronavirus 229E, MRC5, 144 h; read-out: EC50 (229E)

CC(C)C[C@H]1C(=O)N[C@H](C#N)C[C@@H]2C[C@@H](CCCC[C@H](NC(=O)OC(C)(C)C)C(=O)N1C)NC2=O [Example 2]
IC50 (SARS-CoV-2 3CL-protease; [2]): < 100 nM | EC50 ([1]; Human coronavirus 229E, MRC5, 144 h; MRC-5 cells, hCoV-229E MOI 0.05, 6 days at 34° C., ATPlite; read-out: EC50 (229E)): > 1000 nM

CC(C)C[C@H]1C(=O)N[C@H](C#N)C[C@@H]2C[C@@H](C/C=C/C[C@H](NC(=O)OC(C)(C)C)C(=O)N1C)NC2=O [Example 1]
IC50 (SARS-CoV-2 3CL-protease): 100 to 1000 nM | EC50 ([1]; Human coronavirus 229E, MRC5, 144 h, read-out: EC50 (229E)): > 1000 nM

CC(C)C[C@H]1C(=O)N[C@H](C#N)C[C@@H]2C[C@@H](CCCC[C@H](NC(=O)c3ccccn3)C(=O)N1C)NC2=O [Example 4]
IC50 (SARS-CoV-2 3CL-protease; [2]): < 100 nM | EC50 [1, 3]: > 1000 nM

CC(C)C[C@H]1C(=O)N[C@H](C#N)C[C@@H]2C[C@@H](CCCC[C@H](NC(=O)c3cc4c(F)cc(F)c(F)c4[nH]3)C(=O)N1C)NC2=O [Example 5]
IC50 (SARS-CoV-2 3CL-protease; [2]): 100 to 1000 nM | EC50 [1, 3]: > 1000 nM

CC(C)C[C@H]1C(=O)N[C@H](C#N)C[C@@H]2C[C@@H](CCCC[C@H](NC(=O)c3ccccc3Cl)C(=O)N1C)NC2=O [Example 3]
IC50 (SARS-CoV-2 3CL-protease; [2]): < 100 nM | EC50 [1, 3]: 100 to 1000 nM

CC(C)C[C@H]1C(=O)N[C@H](C#N)C[C@@H]2C[C@@H](CCCCc3nc(-c4ccccc4Cl)oc3N1C)NC2=O [Example 6]
IC50 (SARS-CoV-2 3CL-protease; [2]): 100 to 1000 nM | EC50 [1, 3]: 100 to 1000 nM
